Measured values taken from patent publication US20080299589A1, “Methods and Materials for Examining the P13k/Akt Pathway in Gliomas and Prostate Cancers” (The Regents of the University of California, priority 2003, published 2008).
“Also recorded” adds a separate entry of the source.

Columns and labels:
[1] = tested on: PTEN deficient prostate cancer cell lines; conditions: PTEN deficient vs wild type prostate cancer cell lines; cited from earlier work
[2] = tested on: LNCaP cells; assay: Immunostaining of formalin fixed, paraffin embedded LNCaP cell pellets with phospho-specific antibodies after inhibitor treatment; format: cell-based; conditions: 18 hours, vs vehicle
Method: (§1) Cells (LNCaP, DU 145, HT 129) were grown in culture (DMEM supplemented with 10% FBS, L-Glutamine, Penicillin and Streptomycin) and exposed to vehicle, the PI3K inhibitor LY294002 (30 μM), the mTOR inhibitor, CCI-779 (20 nM) for 18 hours or the MEK inhibitor, UO126 (20 μM) combined with 100 ng/ml of EGF for 20 minutes. Cell pellets were prepared, formalin fixed and embedded in paraffin, then cut for immunohistochemical staining with phospho-AKT, -S6, -FKHR and -ERK antibodies. We performed antigen retrieval with a 10 mM sodium citrate buffer (pH 6.0) for 30 minutes in a pressure cooker. Peroxidase activity was quenched with 3% hydrogen peroxide in water. Sections were stained overnight at 4° C. with monoclonal antibodies to PTEN at 1:300 (clone 6H2.1; Cascade Bioscience, Winchester, Mass. This antibody recognizes a 99 amino acid epitope at the C-terminus of PTEN) and polyclonal phosphorylation-specific antibodies to p-AKT (Set 473), p-FKHR which recognizes phosphorylated forms of the forkhead family of transcription factors FKHR (FOXO 1), FKHRL1 (FOXO 3a) and AFX (FOXO 4), p-S6 Ribosomal protein (Set 235/236), p-ERK (Thr-202/Tyr-204) at 1:100 (Cell Signaling Technology, Beverly, Mass.). This was followed by application of biotinylated secondary antibodies (Vector) at 1:1000 dilution for 30 minutes and Avidin-biotin complex (Elite ABC; Vector). Negative control slides received normal mouse serum (DAKO) as the primary antibody. Diaminobenzidine tetrahydrochloride (DAB) was used as the enzyme substrate to visualize specific antibody localization for PTEN and p-AKT; Vector NovaRed (Vector) for p-FKHR, p-S6 and p-ERK. Slides were counterstained with Harris hematoxylin. For immunofluorescence assays, post fixation in paraformaldehyde, the cells were probed with Total AKT (1:50) and p-AKT (1:250); the secondary antibodies Alexa Flour anti-rabbit and anti-mouse (1:1000) [Molecular Probes, Eugene, Oreg.]. Following incubation, images were captured on a Nikon fluorescence microscope and then overlaid using Adobe Photoshop software. […]

[3] = tested on: PTEN deficient prostate cancer xenografts; conditions: PTEN deficient vs wild type prostate cancer xenografts; cited from earlier work
[4] = tested on: HT129 cells; assay: p-ERK staining in EGF-induced HT129 cells; format: cell-based
Method: as §1, with “This was followed by application of biotinylated secondary antibodies (Vector) at 1:1000 dilution for 30 minutes and Avidin-biotin complex (Elite ABC; Vector). Negative control slides received normal mouse serum (DAKO) as the primary antibody. Diaminobenzidine tetrahydrochloride (DAB) was used as the enzyme substrate to visualize specific antibody localization for PTEN and p-AKT; Vector NovaRed (Vector) for p-FKHR, p-S6 and p-ERK. Slides were counterstained with Harris hematoxylin. For immunofluorescence assays, post fixation in paraformaldehyde, the cells were probed with Total AKT (1:50) and p-AKT (1:250); the secondary antibodies Alexa Flour anti-rabbit and anti-mouse (1:1000) [Molecular Probes, Eugene, Oreg.].” left out

[5] = tested on: SKMG-3 cells; conditions: unstimulated SKMG-3 cells, minimal growth conditions; cited from earlier work

CO[C@H]1C[C@@H]2CC[C@@H](C)[C@@](O)(O2)C(=O)C(=O)N2CCCC[C@H]2C(=O)O[C@H]([C@H](C)C[C@@H]2CC[C@@H](OC(=O)C(C)(CO)CO)[C@H](OC)C2)CC(=O)[C@H](C)/C=C(\C)[C@@H](O)[C@@H](OC)C(=O)[C@H](C)C[C@H](C)/C=C/C=C/C=C/1C [CCI-779]
sensitivity to pharmacologic inhibition of mTOR compared to wild type counterparts [1]: more sensitive | staining intensity of p-AKT ([2]; CCI-779 20 nM): no effect | staining intensity of p-S6 (S6 phosphorylation) ([2]; CCI-779 20 nM): downregulation of S6 phosphorylation; also recorded: decreased staining intensity | sensitivity to pharmacologic inhibition of mTOR compared to wild type counterparts [3]: more sensitive

O=c1cc(N2CCOCC2)oc2c(-c3ccccc3)cccc12 [LY294002]
staining intensity of p-ERK ([2]; LY294002 30 μM): no effect | p-ERK staining ([4]; HT129 cells induced with EGF 100 ng/ml, LY294002): lack of inhibition

CNc1cc2c(Nc3cccc(Br)c3)ncnc2cn1 [PD158780]
constitutive phosphorylation of Erk [5]: reduces the constitutive phosphorylation | constitutive phosphorylation of the receptor (EGFR) [5]: reduces the constitutive phosphorylation

N#CC(=C(/N)Sc1ccccc1N)/C(C#N)=C(/N)Sc1ccccc1N [UO-126]
p-ERK staining ([4]; HT129 cells induced with EGF 100 ng/ml for 20 minutes, UO-126 20 μM for 20 minutes): decreased staining; also recorded: reduced
